Our source for the IC50 values is US11976058B2, “Aromatic derivatives, preparation methods, and medical uses thereof” (Bioardis LLC, priority 2019, dated 2024).

The structures appear in SMILES notation.

The assay deals with T1, human FGFR4 (Homo sapiens, UniProt P22455).
T1 construct: human FGFR4 cytoplasmic domain (460-802); GST (N); purchased Carna Biosciences 08-136
Kind of assay: FGFR4 enzymatic assay (HTRF KinEASE-TK). The settings on record: wild-type human FGFR4 cytoplasmic domain (460-802), GST-tag; 60 min preincubation at 25° C.; ATP 200 μM; read-out: Potency (IC50), FGFR4 enzymatic assay. It counts as biochemical. Here is the method: The ability of compounds to inhibit human FGFR4 tyrosine kinase activities was determined using a commercially available HTRF® KinEASE™-TK kit (CISBIO, Cat #62TK0PEC) according to the manufacturer's protocol. Wild-type human FGFR4 cytoplasmic domain (460-802) with N-terminal GST-tag was purchased from Carna Biosciences (Carna, Cat #08-136) and used in the kinase enzymatic assay. This assay, run in a 384-well plate format, is a generic method for measuring tyrosine kinase activities using one substrate and a universal detection system. It involves two steps: (1) Enzymatic step: the biotin labeled TK Substrate is incubated with the kinase and then ATP is added to start the enzymatic reaction; during this step, FGFR4 will phosphorylate the TK Substrate-biotin. (2) Detection step: The TK-Antibody labeled with Eu^3+-Cryptate can recognize the phosphorylated TK Substrate-biotin. When the streptavidin-XL665 conjugate binds the biotin, a FRET signal will be detected. Briefly, human FGFR4 (0.25 μg/ml) in the enzymatic buffer solutions (250 mM HEPES, pH7.0, 0.1% NaN3, 0.05% BSA, 0.5 mM Orthovanadate) were mixed with various concentrations of the test compound (dissolved in 100% DMSO). These solutions were incubated for 60 min at 25° C., and subsequently a mixture of substrate peptide and ATP was added with the final peptide and ATP concentrations at 0.3 μM and 200 μM respectively. The final reaction mixture of enzyme-substrate-ATP-compound was incubated for 40 min at 37° C. Meanwhile the detection mixture containing the TK-antibody and Streptavidin-XL665 diluted in the detection buffer (50 mM HEPES, pH7.0, with additives) was prepared, and added to the reaction mixture at final concentrations of 25 nM and 18.5 nM respectively. After incubation for 60 min at 25° C., the FRET signal of the final solution was measured at 665 nm and 612 nm emissions on a TECAN Spark 10M instrument (TECAN). The percent (%) inhibition at each concentration of a compound was calculated relative to the FRET signal in the Max and Min control wells contained within each assay plate. The Max control wells contained enzyme and substrate as 0% inhibition, and the Min control wells only contained substrate without enzyme as 100% inhibition. The concentrations and percent inhibition values for a test compound are plotted and the concentration of the compound required to achieve 50% inhibition (IC50) was determined with a four-parameter logistic dose response equation. Dose-response curves were generated using Prism (GraphPad Software, La Jolla, CA, US) to calculate IC50 values for each compound tested.

T1 sequence (P22455 460-802): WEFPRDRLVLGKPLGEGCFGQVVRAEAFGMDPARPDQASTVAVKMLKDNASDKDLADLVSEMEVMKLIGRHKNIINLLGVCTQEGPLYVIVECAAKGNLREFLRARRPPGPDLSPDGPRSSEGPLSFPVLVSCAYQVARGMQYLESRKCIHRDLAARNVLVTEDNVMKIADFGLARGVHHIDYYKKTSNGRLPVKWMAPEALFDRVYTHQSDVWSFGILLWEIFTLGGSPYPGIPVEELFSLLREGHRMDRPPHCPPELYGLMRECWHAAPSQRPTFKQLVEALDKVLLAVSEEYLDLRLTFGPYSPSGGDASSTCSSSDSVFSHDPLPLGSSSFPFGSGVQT

Consider `C=C(C)C(=O)Nc1cnn(C)c1-c1n[nH]c2c1CCC(c1c(Cl)c(OC)cc(OC)c1Cl)C2` (single isomer, unassigned) [Compound S2-P1, N-(5-(6-(2,6-dichloro-3,5-Dimethoxyphenyl)-4,5,6,7-tetrahydro-1H-indazol-3-yl)-1-methyl-1H-pyrazol-4-yl) Methacrylamide], for which the IC50 (usually the concentration that inhibits the measured activity by half) was above 100 nM.
Next, `C=C(C)C(=O)Nc1cnn(C)c1-c1n[nH]c2c1CCC(c1c(Cl)c(OC)cc(OC)c1Cl)C2` (single isomer, unassigned) [Compound S2-P2, N-(5-(6-(2,6-dichloro-3,5-Dimethoxyphenyl)-4,5,6,7-tetrahydro-1H-indazol-3-yl)-1-methyl-1H-pyrazol-4-yl) Methacrylamide]: above 100 nM; `C=CC(=O)NC1CCOCC1c1n[nH]c2c1CC[C@H](c1c(Cl)c(OC)cc(OC)c1Cl)C2` (single isomer, unassigned) [Compound S7-P1]: above 100 nM.
As for `C=CC(=O)NC1CCOCC1c1n[nH]c2c1CC[C@H](c1c(Cl)c(OC)cc(OC)c1Cl)C2` (single isomer, unassigned) [Compound S7-P2], the figure is above 100 nM; as for `C=CC(=O)Nc1cnn(CC(F)(F)F)c1-c1n[nH]c2c1CCC(c1c(F)c(OC)cc(OC)c1F)C2` (single isomer, unassigned) [Compound S18-P1, N-(5-(6-(2,6-difluoro-3,5-dimethoxyphenyl)-4,5,6,7-tetrahydro-1H-indazol-3-yl)-1-(2,2,2-trifluoroethyl)-1H-pyrazol-4-yl)acrylamide], above 100 nM; as for `C=CC(=O)Nc1cnn(CC(F)(F)F)c1-c1n[nH]c2c1CCC(c1c(F)c(OC)cc(OC)c1F)C2` (single isomer, unassigned) [Compound S18-P2, N-(5-(6-(2,6-difluoro-3,5-dimethoxyphenyl)-4,5,6,7-tetrahydro-1H-indazol-3-yl)-1-(2,2,2-trifluoroethyl)-1H-pyrazol-4-yl)acrylamide], above 100 nM.
Next, `COc1cc(OC)c(F)c(C2CCc3c(-c4c(NC(C)=O)cnn4C)n[nH]c3C2)c1F` (single isomer, unassigned) [Compound S19-P1, N-(5-(6-(2,6-difluoro-3,5-dimethoxyphenyl)-4,5,6,7-tetrahydro-1H-indazol-3-yl)-1-methyl-1H-pyrazol-4-yl)acetamide]: above 100 nM; `COc1cc(OC)c(F)c(C2CCc3c(-c4c(NC(C)=O)cnn4C)n[nH]c3C2)c1F` (single isomer, unassigned) [Compound S19-P2, N-(5-(6-(2,6-difluoro-3,5-dimethoxyphenyl)-4,5,6,7-tetrahydro-1H-indazol-3-yl)-1-methyl-1H-pyrazol-4-yl)acetamide]: above 100 nM; `CCC(=O)Nc1cnn(C)c1-c1n[nH]c2c1CCC(c1c(F)c(OC)cc(OC)c1F)C2` (single isomer, unassigned) [Compound S20-P1, N-(5-(6-(2,6-difluoro-3,5-dimethoxyphenyl)-4,5,6,7-tetrahydro-1H-indazol-3-yl)-1-methyl-1H-pyrazol-4-yl)propionamide]: above 100 nM.
Turning to `CCC(=O)Nc1cnn(C)c1-c1n[nH]c2c1CCC(c1c(F)c(OC)cc(OC)c1F)C2` (single isomer, unassigned) [Compound S20-P2, N-(5-(6-(2,6-difluoro-3,5-dimethoxyphenyl)-4,5,6,7-tetrahydro-1H-indazol-3-yl)-1-methyl-1H-pyrazol-4-yl)propionamide], the IC50 is above 100 nM.
In the case of `C=C(F)C(=O)Nc1cnn(C)c1-c1n[nH]c2c1CCC(c1c(F)c(OC)cc(OC)c1F)C2` (single isomer, unassigned) [Compound S21-P1, N-(5-(6-(2,6-difluoro-3,5-dimethoxyphenyl)-4,5,6,7-tetrahydro-1H-indazol-3-yl)-1-methyl-1H-pyrazol-4-yl)-2-fluoroacrylamide], the IC50 is above 100 nM.
Regarding `C=C(F)C(=O)Nc1cnn(C)c1-c1n[nH]c2c1CCC(c1c(F)c(OC)cc(OC)c1F)C2` (single isomer, unassigned) [Compound S21-P2, N-(5-(6-(2,6-difluoro-3,5-dimethoxyphenyl)-4,5,6,7-tetrahydro-1H-indazol-3-yl)-1-methyl-1H-pyrazol-4-yl)-2-fluoroacrylamide], the IC50 is above 100 nM.
Next, `C=CC(=O)N[C@H]1COC[C@H]1c1n[nH]c2c1CC[C@@H](c1c(Cl)c(OC)cc(OC)c1Cl)C2` [Compound S10-P1, N-((3R,4R)-4-((R)-6-(2,6-dichloro-3,5-dimethoxyphenyl)-4,5,6,7-tetrahydro-1H-indazol-3-yl)tetrahydrofuran-3-yl)acrylamide]: above 100 nM; `C=CC(=O)N[C@@H]1COC[C@@H]1c1n[nH]c2c1CC[C@@H](c1c(Cl)c(OC)cc(OC)c1Cl)C2` [Compound S10-P2, N-((3S,4S)-4-((R)-6-(2,6-dichloro-3,5-dimethoxyphenyl)-4,5,6,7-tetrahydro-1H-indazol-3-yl)tetrahydrofuran-3-yl)acrylamide]: above 100 nM; `C=CC(=O)N[C@@H]1COC[C@@H]1c1n[nH]c2c1CC[C@H](c1c(Cl)c(OC)cc(OC)c1Cl)C2` [Compound S10-P3, N-((3S,4S)-4-((S)-6-(2,6-dichloro-3,5-dimethoxyphenyl)-4,5,6,7-tetrahydro-1H-indazol-3-yl)tetrahydrofuran-3-yl)acrylamide]: above 100 nM.
As for `C=CC(=O)N[C@H]1COC[C@H]1c1n[nH]c2c1CC[C@H](c1c(Cl)c(OC)cc(OC)c1Cl)C2` [Compound S10-P4, N-((3R,4R)-4-((S)-6-(2,6-dichloro-3,5-dimethoxyphenyl)-4,5,6,7-tetrahydro-1H-indazol-3-yl)tetrahydrofuran-3-yl)acrylamide], the figure is above 100 nM; as for `C=CC(=O)N[C@H]1COC[C@H]1c1n[nH]c2c1CC[C@H](c1c(F)c(OC)cc(OC)c1F)C2` [Compound S13-P1, N-((3R,4R)-4-((S)-6-(2,6-difluoro-3,5-dimethoxyphenyl)-4,5,6,7-tetrahydro-1H-indazol-3-yl)tetrahydrofuran-3-yl)acrylamide], above 100 nM.
Next, `C=CC(=O)N[C@@H]1COC[C@@H]1c1n[nH]c2c1CC[C@H](c1c(F)c(OC)cc(OC)c1F)C2` [Compound S13-P2, N-((3S,4S)-4-((S)-6-(2,6-difluoro-3,5-dimethoxyphenyl)-4,5,6,7-tetrahydro-1H-indazol-3-yl)tetrahydrofuran-3-yl)acrylamide]: above 100 nM; `C=CC(=O)N[C@H]1COC[C@H]1c1n[nH]c2c1CC[C@H](c1cc(OC)cc(OC)c1F)C2` [Compound S13-P3, N-((3R,4R)-4-((S)-6-(2-fluoro-3,5-dimethoxyphenyl)-4,5,6,7-tetrahydro-1H-indazol-3-yl)tetrahydrofuran-3-yl)acrylamide]: above 100 nM; `C=CC(=O)N[C@@H]1COC[C@@H]1c1n[nH]c2c1CC[C@H](c1cc(OC)cc(OC)c1F)C2` [Compound S13-P4, N-((3S,4S)-4-((S)-6-(2-fluoro-3,5-dimethoxyphenyl)-4,5,6,7-tetrahydro-1H-indazol-3-yl)tetrahydrofuran-3-yl)acrylamide]: above 100 nM.
Take `C=CC(=O)Nc1cnn(CC)c1-c1n[nH]c2c1CC[C@@H](c1cc(OC)cc(OC)c1F)C2` [Compound S14-P3, (R)—N-(1-ethyl-5-(6-(2-fluoro-3,5-dimethoxyphenyl)-4,5,6,7-tetrahydro-1H-indazol-3-yl)-1H-pyrazol-4-yl) acrylamide]: the IC50 was above 100 nM.
For the molecule `COC(=O)/C=C/C(=O)Nc1cnn(C)c1-c1n[nH]c2c1CC[C@H](c1c(F)c(OC)cc(OC)c1F)C2` [Compound S22, methyl (S,E)-4-((5-(6-(2,6-difluoro-3,5-dimethoxyphenyl)-4,5,6,7-tetrahydro-1H-indazol-3-yl)-1-methyl-1H-pyrazol-4-yl)amino)-4-oxobut-2-enoate], the IC50 was above 100 nM.
Next, `COc1cc(OC)c(F)c([C@H]2CCc3c(-c4c(NC(=O)/C=C/C(=O)OC(C)C)cnn4C)n[nH]c3C2)c1F` [Compound S23, isopropyl (S,E)-4-((5-(6-(2,6-difluoro-3,5-dimethoxyphenyl)-4,5,6,7-tetrahydro-1H-indazol-3-yl)-1-methyl-1H-pyrazol-4-yl)amino)-4-oxobut-2-enoate]: above 100 nM.
